According to patent US8791098B2 (priority 2008, dated 2014):

Target: T1, preassembled microtubules (Sus scrofa, UniProt P02550+P02554)
T1 construct: Microtubules proteins were purified from porcine brain; from tissue; host or cells: porcine brain
Assay: De-polymerization of preassembled microtubules (turbidometry)
Assay type: biochemical, porcine
Settings: drug added after about 5 min polymerization at 37° C., monitored 10 min at 350 nm
Experimental: Tubulin purification: Microtubules proteins were purified from porcine brain by using standard procedures that includes three cycles of temperature-dependent polymerization and de-polymerization, as described elsewhere.
Polymerisation assay: Tubulin polymerisation was monitored by using turbidometry assay (lit). Samples (200 μl, 10 μM tubulin) in PEM polymerisation buffer (0.1 M PIPES, pH 6.6, 1 mM EGTA, 1 mM MgSO4, and 1 mM GTP), were rapidly warmed to 37° C. in a water-jacketed cuvette holder of a diode array photometer (Beckman spectrophotometer DU 7500). Absorbance at 350 nm where monitored in the absence and the presence of the drugs.
In order to examine the action of the drug on preassembled microtubules, microtubules proteins were firstly polymerized at 37° C. for approximately 5 min. Then the drug was added, and the stability of the microtubules was measured for further 10 min at 350 nm.

T1 sequence (P02554 whole entry): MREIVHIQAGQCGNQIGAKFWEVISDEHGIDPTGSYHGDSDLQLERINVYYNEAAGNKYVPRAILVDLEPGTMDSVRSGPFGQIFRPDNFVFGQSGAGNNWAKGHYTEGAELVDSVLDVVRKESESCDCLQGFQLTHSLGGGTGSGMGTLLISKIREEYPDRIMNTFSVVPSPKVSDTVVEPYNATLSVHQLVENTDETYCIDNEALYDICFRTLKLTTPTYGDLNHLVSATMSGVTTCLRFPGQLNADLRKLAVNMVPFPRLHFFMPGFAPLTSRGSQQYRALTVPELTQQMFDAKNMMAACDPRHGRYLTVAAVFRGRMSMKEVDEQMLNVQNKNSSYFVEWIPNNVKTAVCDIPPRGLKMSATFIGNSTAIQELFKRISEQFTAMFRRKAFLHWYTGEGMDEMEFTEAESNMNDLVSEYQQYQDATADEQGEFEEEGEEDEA
T1 sequence (P02550 whole entry): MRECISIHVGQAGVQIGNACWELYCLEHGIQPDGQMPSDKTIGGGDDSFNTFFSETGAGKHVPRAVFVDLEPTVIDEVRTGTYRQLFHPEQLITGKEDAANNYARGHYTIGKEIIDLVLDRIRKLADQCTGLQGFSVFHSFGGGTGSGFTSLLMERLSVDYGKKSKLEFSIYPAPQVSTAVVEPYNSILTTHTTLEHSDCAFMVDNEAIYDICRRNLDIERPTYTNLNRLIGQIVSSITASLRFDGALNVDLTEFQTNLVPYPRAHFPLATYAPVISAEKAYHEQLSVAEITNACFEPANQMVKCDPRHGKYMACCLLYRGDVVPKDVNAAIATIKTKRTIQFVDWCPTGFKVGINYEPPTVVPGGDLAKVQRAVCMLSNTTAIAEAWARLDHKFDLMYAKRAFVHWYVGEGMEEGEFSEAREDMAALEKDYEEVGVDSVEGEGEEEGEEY

## CC[C@H](C)[C@H](NC(=O)[C@H]1CCCCN1C)C(=O)N(C)[C@H](CCc1nc(C(=O)N[C@@H](Cc2ccccc2)C[C@H](C)C(=O)O)cs1)C(C)C [pre-tubulysin-827, pretubulysin]
  de-polymerization of preassembled microtubules: induced de-polymerization of microtubules at substoichiometric concentrations
